Key:
[1] = target: T1, IDH (endogenous IDH1 R132C) in HT1080 cell (Homo sapiens, UniProt O75874, R132C); test: Cell-based assay for IDH inhibition (decrease of D-2-HG) in HT1080 cells; details: human fibrosarcoma cell line HT1080, 16 hours treatment, D-2-HG by LC-MS, in triplet
T1 construct: which harbor endogenous heterozygous IDH1 R132C and R132H mutation respectively and accumulate D-2-HG
Procedure, shortened: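 LC-MS/MS quantification of D-2-HG, normalized to glutamate, follows a 16 h compound exposure of IDH1 R132C HT1080 cells in DMEM with 10% FBS. Extraction uses pre-chilled 40% methanol/40% acetonitrile in water. Triplicate determinations; IC50 from D-2-HG levels relative to DMSO-treated cells.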

IDH1 R132C = target: T2, IDH1 R132C (Homo sapiens, UniProt O75874, R132C); test: Biochemical assay for IDH inhibition (NADPH fluorescence), mutant IDH1 R132C; details: 25 nM IDH1-R132C, 1 hour pre-incubation, in triplet
T2 construct: 6xHis
Procedure, shortened: (§1)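 The read-out was the linear-phase loss of NADPH fluorescence (340/460 nm) over 15 min, background-subtracted and normalized to DMSO wells, giving triplicate IC50 values. Beforehand, R132H (50 nM) or R132C (25 nM) was exposed to compound for 1 h at room temperature with 1.33 mM α-KG at pH 7.5, and the reaction was triggered by adding an 80 μM NADPH solution.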

IDH1 R132H = target: T3, IDH1 R132H (Homo sapiens, UniProt O75874, R132H); test: Biochemical assay for IDH inhibition (NADPH fluorescence), mutant IDH1 R132H; details: 50 nM IDH1-R132H, 1 hour pre-incubation, in triplet
T3 construct: 6xHis
Procedure, shortened: as §1

T2 sequence (O75874 whole entry R132C): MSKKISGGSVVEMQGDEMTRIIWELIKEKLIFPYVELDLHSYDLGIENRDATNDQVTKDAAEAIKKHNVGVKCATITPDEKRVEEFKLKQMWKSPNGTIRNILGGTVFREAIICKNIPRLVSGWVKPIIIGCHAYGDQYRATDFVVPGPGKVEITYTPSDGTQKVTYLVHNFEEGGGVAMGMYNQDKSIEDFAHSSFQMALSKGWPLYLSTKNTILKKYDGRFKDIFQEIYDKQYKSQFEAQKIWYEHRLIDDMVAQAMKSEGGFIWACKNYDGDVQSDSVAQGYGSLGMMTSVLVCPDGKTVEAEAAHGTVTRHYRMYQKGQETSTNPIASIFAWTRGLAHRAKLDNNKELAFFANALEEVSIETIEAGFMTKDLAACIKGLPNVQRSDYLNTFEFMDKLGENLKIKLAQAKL
T1 sequence (O75874 2-414 R132C): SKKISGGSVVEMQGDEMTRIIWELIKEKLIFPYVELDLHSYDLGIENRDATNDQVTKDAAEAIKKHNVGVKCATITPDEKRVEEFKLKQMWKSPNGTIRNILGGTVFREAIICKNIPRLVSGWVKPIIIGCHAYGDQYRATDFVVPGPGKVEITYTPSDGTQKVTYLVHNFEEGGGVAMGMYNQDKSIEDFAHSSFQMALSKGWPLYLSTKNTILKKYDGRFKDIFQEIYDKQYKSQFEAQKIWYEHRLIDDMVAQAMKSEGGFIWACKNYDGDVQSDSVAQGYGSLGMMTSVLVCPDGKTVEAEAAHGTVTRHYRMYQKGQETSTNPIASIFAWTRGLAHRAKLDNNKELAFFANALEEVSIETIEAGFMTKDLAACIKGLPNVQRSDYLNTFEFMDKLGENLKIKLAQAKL
T3 sequence (O75874 whole entry R132H): as the sequence (O75874 whole entry R132C) above, with C132H counted along it

| SMILES | IC50 [1] [µM] | IC50 (IDH1 R132C) [µM] | IC50 (IDH1 R132H) [µM] |
| --- | --- | --- | --- |
| CCN1Cc2c(ccnc2N[C@@H](C)c2cc(F)c(-c3ccnc(-c4cncc(Cl)c4)c3)cc2F)C1=O [Compound 100, (S)-4-((1-(4-(5′-chloro-[2,3′-bipyridin]-4-yl)-2,5-difluorophenyl)ethyl)amino)-2-ethyl-2,3-dihydro-1H-pyrrolo[3,4-c]pyridin-1-one] | 0.1 to 0.5 | 0.5 to 1 | 0.1 to 0.5 |
| CCN1Cc2c(ccnc2N[C@@H](C)c2cc(F)c(-c3cc(C(F)(F)F)cc(Cl)n3)cc2F)C1=O [Compound 121, (S)-4-((1-(4-(6-chloro-4-(trifluoromethyl)pyridin-2-yl)-2,5-difluorophenyl)ethyl)amino)-2-ethyl-2,3-dihydro-1H-pyrrolo[3,4-c]pyridin-1-one] | 0.5 to 1 | 0.1 to 0.5 | < 0.1 |
| CCN1Cc2c(ccnc2N[C@@H](C)c2ccc(Oc3ccc4c(ccn4C(C)C)c3)c(F)c2)C1=O [Compound 9, (S)-2-ethyl-4-((1-(3-fluoro-4-((1-isopropyl-1H-indol-5-yl)oxy)phenyl)ethyl)amino)-2,3-dihydro-1H-pyrrolo[3,4-c]pyridin-1-one] | 0.1 to 0.5 | 0.1 to 0.5 | 0.1 to 0.5 |
| CCN1Cc2c(ccnc2N[C@@H](C)c2ccc(OC3CCC(F)(F)C3)c(F)c2)C1=O (stereo partly drawn) [Compound 27, 4-(((1S)-1-(4-((3,3-difluorocyclopentyl)oxy)-3-fluorophenyl)ethyl)amino)-2-ethyl-2,3-dihydro-1H-pyrrolo[3,4-c]pyridin-1-one] | > 1 | > 1 | > 1 |
| CCN1Cc2c(ccnc2N[C@@H](C)c2cc(F)c(Oc3ccc4c(ccn4C)c3)cc2F)C1=O [Compound 21, (S)-4-((1-(2,5-difluoro-4-((1-methyl-1H-indol-5-yl)oxy)phenyl)ethyl)amino)-2-ethyl-2,3-dihydro-1H-pyrrolo[3,4-c]pyridin-1-one] | > 1 | 0.1 to 0.5 | < 0.1 |
| CCN1Cc2c(ccnc2N[C@@H](C)c2ccc(-c3ccc(F)cc3)c(F)c2)C1=O [Compound 74, (S)-4-((1-(2,4′-difluoro-[1,1′-biphenyl]-4-yl)ethyl)amino)-2-ethyl-2,3-dihydro-1H-pyrrolo[3,4-c]pyridin-1-one] | > 1 | > 1 | > 1 |
| CCN1Cc2c(ccnc2N[C@@H](C)c2ccc(C3CCCC3)c(F)c2)C1=O [Compound 68, 4-[[(1S)-1-(4-cyclopentyl-3-fluoro-phenyl)ethyl]amino]-2-ethyl-3H-pyrrolo[3,4-c]pyridin-1-one] | > 1 | > 1 | 0.5 to 1 |
| CCN1Cc2c(ccnc2N[C@@H](C)c2ccc(C3=CCN(C(C)(C)C)CC3)c(F)c2)C1=O [Compound 35, (S)-4-((1-(4-(1-(tert-butyl)-1,2,3,6-tetrahydropyridin-4-yl)-3-fluorophenyl)ethyl)amino)-2-ethyl-2,3-dihydro-1H-pyrrolo[3,4-c]pyridin-1-one] | > 1 | > 1 | > 1 |
| CCN1Cc2c(ccnc2N[C@@H](C)c2cc(F)c(-c3ccnc(CC4CC4)c3)cc2F)C1=O [Compound 91, (S)-4-((1-(4-(2-(cyclopropylmethyl)pyridin-4-yl)-2,5-difluorophenyl)ethyl)amino)-2-ethyl-2,3-dihydro-1H-pyrrolo[3,4-c]pyridin-1-one] | 0.1 to 0.5 | 0.5 to 1 | 0.1 to 0.5 |
| CCN1Cc2c(ccnc2N[C@@H](C)c2cc(F)c(-c3cc(C(C)(C)F)c(Cl)cn3)cc2F)C1=O [Compound 136, (S)-4-((1-(4-(5-chloro-4-(2-fluoropropan-2-yl)pyridin-2-yl)-2,5-difluorophenyl)ethyl)amino)-2-ethyl-2,3-dihydro-1H-pyrrolo[3,4-c]pyridin-1-one] | < 0.1 | < 0.1 | < 0.1 |
| CCN1Cc2c(ccnc2N[C@@H](C)c2cc(F)c(-c3cc(C(C)(C)F)c(C)cn3)cc2F)C1=O [Compound 127, (S)-4-((1-(2,5-difluoro-4-(4-(2-fluoropropan-2-yl)-5-methylpyridin-2-yl)phenyl)ethyl)amino)-2-ethyl-2,3-dihydro-1H-pyrrolo[3,4-c]pyridin-1-one] | < 0.1 | < 0.1 | < 0.1 |
| CCN1Cc2c(ccnc2N[C@@H](C)c2cc3cc(Cl)ccc3[nH]c2=O)C1=O [Compound 64, (S)-6-chloro-3-(1-((2-ethyl-1-oxo-2,3-dihydro-1H-pyrrolo[3,4-c]pyridin-4-yl)amino)ethyl)quinolin-2(1H)-one] | > 1 | > 1 | 0.1 to 0.5 |
| CCN1Cc2c(ccnc2N[C@@H](C)c2cc(F)c(-c3ccnc(C4CCCC4)c3)cc2F)C1=O [Compound 101, (S)-4-((1-(4-(2-cyclopentylpyridin-4-yl)-2,5-difluorophenyl)ethyl)amino)-2-ethyl-2,3-dihydro-1H-pyrrolo[3,4-c]pyridin-1-one] | 0.1 to 0.5 | 0.1 to 0.5 | < 0.1 |
| CCN1Cc2c(ccnc2N[C@@H](C)c2ccc(Oc3ccc4c(ccn4C)c3)c(F)c2)C1=O [Compound 3, (S)-2-ethyl-4-((1-(3-fluoro-4-((1-methyl-1H-indol-5-yl)oxy)phenyl)ethyl)amino)-2,3-dihydro-1H-pyrrolo[3,4-c]pyridin-1-one] | 0.5 to 1 | 0.1 to 0.5 | 0.1 to 0.5 |
| CCN1Cc2c(ccnc2N[C@@H](C)c2ncc(-c3ccccc3)cn2)C1=O [Compound 47, (S)-2-ethyl-4-((1-(5-phenylpyrimidin-2-yl)ethyl)amino)-2,3-dihydro-1H-pyrrolo[3,4-c]pyridin-1-one] | > 1 | > 1 | > 1 |
| CCN1Cc2c(ccnc2N[C@@H](C)c2cc(F)c(-c3cc(C(F)(F)F)cc(CF)n3)cc2F)C1=O [Compound 123, (S)-4-((1-(2,5-difluoro-4-(6-(fluoromethyl)-4-(trifluoromethyl)pyridin-2-yl)phenyl)ethyl)amino)-2-ethyl-2,3-dihydro-1H-pyrrolo[3,4-c]pyridin-1-one] | 0.1 to 0.5 | < 0.1 | < 0.1 |
| CCN1Cc2c(ccnc2N[C@@H](C)c2ccc(Oc3ccnc(C(C)(C)C)c3)c(F)c2)C1=O [Compound 25, (S)-4-((1-(4-((2-(tert-butyl)pyridin-4-yl)oxy)-3-fluorophenyl)ethyl)amino)-2-ethyl-2,3-dihydro-1H-pyrrolo[3,4-c]pyridin-1-one] | 0.5 to 1 | 0.1 to 0.5 | 0.1 to 0.5 |
| CCN1Cc2c(ccnc2N[C@@H](C)c2ccc(OC3Cc4ccccc4C3)c(F)c2)C1=O [Compound 5, (S)-4-((1-(4-((2,3-dihydro-1H-inden-2-yl)oxy)-3-fluorophenyl)ethyl)amino)-2-ethyl-2,3-dihydro-1H-pyrrolo[3,4-c]pyridin-1-one] | > 1 | 0.5 to 1 | 0.5 to 1 |
| CCN1Cc2c(ccnc2N[C@@H](C)c2ncc(-c3ccc(F)c(C)c3)cn2)C1=O [Compound 48, (S)-2-ethyl-4-((1-(5-(4-fluoro-3-methylphenyl)pyrimidin-2-yl)ethyl)amino)-2,3-dihydro-1H-pyrrolo[3,4-c]pyridin-1-one] | > 1 | > 1 | > 1 |
| CCN1Cc2c(ccnc2N[C@@H](C)c2cc(F)c(-c3cc(C4(C(F)(F)F)CC=NN4)ccn3)cc2F)C1=O (stereo partly drawn) [Compound 126, 4-(((1S)-1-(2,5-difluoro-4-(4-(5-(trifluoromethyl)-4,5-dihydro-1H-pyrazol-5-yl)pyridin-2-yl)phenyl)ethyl)amino)-2-ethyl-2,3-dihydro-1H-pyrrolo[3,4-c]pyridin-1-one] | 0.1 to 0.5 | 0.1 to 0.5 | < 0.1 |
| CCN1Cc2c(ccnc2N[C@@H](C)c2cc(F)c(-c3ccnc(C(C)(C)C)c3)c(F)c2)C1=O [Compound 43, (S)-4-((1-(4-(2-(tert-butyl)pyridin-4-yl)-3,5-difluorophenyl)ethyl)amino)-2-ethyl-2,3-dihydro-1H-pyrrolo[3,4-c]pyridin-1-one] | 0.1 to 0.5 | < 0.1 | < 0.1 |
| CCN1Cc2c(ccnc2N[C@@H](C)c2ccc(-n3ccc(C)n3)c(F)c2)C1=O [Compound 59, (S)-2-ethyl-4-((1-(3-fluoro-4-(3-methyl-1H-pyrazol-1-yl)phenyl)ethyl)amino)-2,3-dihydro-1H-pyrrolo[3,4-c]pyridin-1-one] | > 1 | > 1 | > 1 |
| Cc1ccc(Oc2ccc([C@H](C)Nc3nccc4c3CN(CCF)C4=O)cc2F)cc1 [Compound 16, (S)-4-((1-(3-fluoro-4-(p-tolyloxy)phenyl)ethyl)amino)-2-(2-fluoroethyl)-2,3-dihydro-1H-pyrrolo[3,4-c]pyridin-1-one] | > 1 | 0.5 to 1 | 0.5 to 1 |
| CCN1Cc2c(ccnc2N[C@@H](C)c2ccc(C(=O)c3cccnc3)c(F)c2)C1=O [Compound 61, (S)-2-ethyl-4-((1-(3-fluoro-4-nicotinoylphenyl)ethyl)amino)-2,3-dihydro-1H-pyrrolo[3,4-c]pyridin-1-one] | > 1 | > 1 | > 1 |

— patent US12441725B2, “ISO-citrate dehydrogenase (IDH) inhibitor” (ZHEJIANG METON PHARMACEUTICAL CO., LTD, priority 2019, dated 2025)
